From patent publication US9108937B2 (Merck Sharp & Dohme Corp., priority 2010, dated 2015)

Target: T1, human mGluR2 (Homo sapiens, UniProt Q14416)
T1 construct: expressed in transfected cells
Experiment: FLIPR Ca2+ mobilization assay, potentiation of glutamate response
Type: cell-based
Settings: CHO dhfr- cells expressing human mGluR2 and Gα16; potentiation after EC20 glutamate (900 nM); read-out: Representative FLIPR EC50 Values: IC50
Description: Inhibition constants are determined as follows. The compounds of the present invention may be tested in a fluorescence laser imaging plate reader (FLIPR) based assay. This assay is a common functional assay to monitor Ca^2+ mobilization in whole cells expressing recombinant receptor coupled with a promiscuous G-protein. CHO dhfr− cells stably expressing recombinant human mGluR2 and Gα16 loaded with Fluo-4 AM (Invitrogen, Carlsbad Calif.) are treated with dose responses of compounds and the Ca^2+ response is monitored on a FLIPR384 (Molecular Devices, Sunnydale Calif.) for agonist activity. The potentiation response is monitored after a subsequent addition of an EC20 concentration of glutamate (900 nM). The maximum calcium response at each concentration of compound for agonist or potentiation are plotted as dose responses and the curves are fitted with a four parameters logistic equation giving EC50 and Hill coefficient using the iterative non linear curve fitting software program.

T1 sequence (Q14416 19-872): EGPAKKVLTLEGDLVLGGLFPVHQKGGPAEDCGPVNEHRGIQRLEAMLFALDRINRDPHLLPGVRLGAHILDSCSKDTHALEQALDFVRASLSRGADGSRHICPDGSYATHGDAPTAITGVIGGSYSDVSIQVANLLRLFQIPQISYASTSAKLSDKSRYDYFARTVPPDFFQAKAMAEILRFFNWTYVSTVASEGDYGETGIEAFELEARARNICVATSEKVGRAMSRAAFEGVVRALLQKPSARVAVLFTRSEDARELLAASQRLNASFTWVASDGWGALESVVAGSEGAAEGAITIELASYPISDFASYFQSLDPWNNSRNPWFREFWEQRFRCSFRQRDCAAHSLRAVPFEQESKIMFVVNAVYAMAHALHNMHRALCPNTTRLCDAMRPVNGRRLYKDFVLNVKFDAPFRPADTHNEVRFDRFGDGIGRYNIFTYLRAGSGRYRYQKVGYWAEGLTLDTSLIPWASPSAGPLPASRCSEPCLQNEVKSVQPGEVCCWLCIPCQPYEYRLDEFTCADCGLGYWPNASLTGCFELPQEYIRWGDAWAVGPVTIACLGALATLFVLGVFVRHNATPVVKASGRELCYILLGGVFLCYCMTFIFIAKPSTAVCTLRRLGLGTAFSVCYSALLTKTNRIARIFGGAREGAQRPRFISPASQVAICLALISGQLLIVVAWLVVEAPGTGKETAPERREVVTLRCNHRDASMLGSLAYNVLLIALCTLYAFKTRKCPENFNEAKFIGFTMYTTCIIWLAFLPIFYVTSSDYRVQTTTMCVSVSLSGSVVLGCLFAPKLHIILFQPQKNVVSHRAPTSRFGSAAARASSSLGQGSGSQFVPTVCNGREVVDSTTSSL

| EC50 | SMILES |
| --- | --- |
| 5 nM | CN1c2cc(-c3ccccc3C#N)ccc2N(CC2CC2)S1(=O)=O [Compound 1-5, 2-[1-(cyclopropylmethyl)-3-methyl-2,2-dioxido-1,3-dihydro-2,1,3-benzothiadiazol-5-yl]benzonitrile] |
| 490 nM | Cc1cccnc1-c1ccc2c(c1)N(C)S(=O)(=O)N2CC1CC1 [Compound 3-1, 1-(cyclopropylmethyl)-3-methyl-5-(3-methylpyridin-2-yl)-1,3-dihydro-2,1,3-benzothiadiazole 2,2-dioxide] |
| 22 nM | CN1c2cc(-c3cc(C(C)(C)O)ccc3F)ccc2N(CC2CC2(F)F)S1(=O)=O (stereo not drawn) [Compound 17-2] |
| 9 nM | CN1c2nc(-c3ccccc3C#N)ccc2N(CC(C)(C)C)S1(=O)=O [Compound 30-2, 2-[1-(2,2-dimethylpropyl)-3-methyl-2,2-dioxido-1,3-dihydro[1,2,5]thiadiazolo[3,4-b]pyridin-5-yl]benzonitrile] |
| 25 nM | Cc1ccc(C(C)(C)O)cc1-c1ccc2c(n1)N(C)S(=O)(=O)N2CC1CC1 [Compound 38-3, 2-{3-[1-(cyclopropylmethyl)-3-methyl-2,2-dioxido-1,3-dihydro [1,2,5]thiadiazolo[3,4-b]pyridin-5-yl]-4-methylphenyl}propan-2-ol] |
| 11 nM | CC(=O)N1CCN(Cc2ccc(C)c(-c3ccc4c(n3)N(C)S(=O)(=O)N4CC3CC3(F)F)c2)CC1 (stereo not drawn) [Compound 39-2, 1-[4-(3-{1-[(2,2-difluorocyclopropyl)methyl]-3-methyl-2,2-dioxido-1,3-dihydro[1,2,5]thiadiazolo[3,4-b]pyridin-5-yl}-4-methylbenzyl)piperazin-1-yl]ethanone] |
| 9 nM | CN1c2nc(-c3cccc(CN4CCS(=O)(=O)CC4)c3F)ccc2N(CC2CC2(F)F)S1(=O)=O (stereo not drawn) [Compound 42-3, 1-[(2,2-difluorocyclopropyl)methyl]-5-{3-[(1,1-dioxidothiomorpholin-4-yl)methyl]-2-fluorophenyl}-3-methyl-1,3-dihydro [1,2,5]thiadiazolo[3,4-b]pyridine 2,2-dioxide] |
| 8 nM | Cc1ccc(CN2CCN(C(=O)[C@@H](C)O)CC2)cc1-c1ccc2c(n1)N(C)S(=O)(=O)N2CC1CC1(F)F (stereo partly drawn) [Compound 43-3, (2R)-1-[4-(3-{1-[(2,2-difluorocyclopropyl)methyl]-3-methyl-2,2-dioxido-1,3-dihydro[1,2,5]thiadiazolo[3,4-b]pyridin-5-yl}-4-methylbenzyl)piperazin-1-yl]-2-hydroxypropan-1-one] |

Second part, the compound before the results:

| SMILES | EC50 |
| --- | --- |
| CN1c2cc(-c3cccc(N4CCS(=O)(=O)CC4)c3)ccc2N(CC2CCC2)S1(=O)=O [Compound 8-1, 1-(cyclobutylmethyl)-5-[3-(1,1-dioxidothiomorpholin-4-yl)phenyl]-3-methyl-1,3-dihydro-2,1,3-benzothiadiazole 2,2-dioxide] | 110 nM |
| CN1c2cc(-c3cc(Oc4ccnc(C#N)c4)ccc3C#N)ccc2N(CC2CC2(F)F)S1(=O)=O (stereo not drawn) [Compound 12-4, 4-(4-cyano-3-{1-[(2,2-difluorocyclopropyl)methyl]-3-methyl-2,2-dioxido-1,3-dihydro-2,1,3-benzothiadiazol-5-yl}phenoxy) pyridine-2-carbonitrile] | 0.5 nM |
| CN1c2cc(-c3cc(CN4CCc5onc(O)c5C4)ccc3C#N)ccc2N(CC2CC2(F)F)S1(=O)=O (stereo not drawn) [Compound 20-1, 2-{1-[(2,2-difluorocyclopropyl)methyl]-3-methyl-2,2-dioxido-1,3-dihydro-2,1,3-benzothiadiazol-5-yl}-4-[(3-hydroxy-6,7-dihydroisoxazolo[4,5-c]pyridin-5(4H)-yl)methyl]benzonitrile] | 0.8 nM |
| CN1c2cc(-c3cccc(CNc4ncccc4C#N)c3)ccc2N(CC2CC2)S1(=O)=O [Compound 24-1, 2-({3-[1-(cyclopropylmethyl)-3-methyl-2,2-dioxido-1,3-dihydro-2,1,3-benzothiadiazol-5-yl]benzyl}amino)nicotinonitrile] | 130 nM |
| CN1c2cc(-c3cccc(CN4CCN(S(C)(=O)=O)CC4)n3)ccc2N(CC2CC2(F)F)S1(=O)=O (stereo not drawn) [Compound 25-2] | 24 nM |
| CN1c2nc(-c3ccc(N4CCN(S(C)(=O)=O)CC4)cc3)ccc2N(CC2CC2(F)F)S1(=O)=O (stereo not drawn) [Compound 32-2, 1-[(2,2-difluorocyclopropyl)methyl]-3-methyl-5-{4-[4-(methylsulfonyl)piperazin-1-yl]phenyl}-1,3-dihydro[1,2,5]thiadiazolo[3,4-b]pyridine 2,2-dioxide] | 140 nM |
| CN1c2nc(-c3cc(Oc4ccnc(C#N)c4)ccc3C#N)ccc2N(CC2CC2(F)F)S1(=O)=O (stereo not drawn) [Compound 36-2, 4-(4-cyano-3-{1-[(2,2-difluorocyclopropyl)methyl]-3-methyl-2,2-dioxido-1,3-dihydro[1,2,5]thiadiazolo[3,4-b]pyridin-5-yl}phenoxy)pyridine-2-carbonitrile] | 3 nM |
